Laboratory results from ChEMBL document CHEMBL1201862, “PubChem BioAssay data set” (2004).
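A five-concentration, 48-hour dose response in 96-well plates underlies each endpoint, interpolated linearly between surrounding concentrations. At the GI50, growth is halved.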 The source made the active and inactive calls. Cut-off read from the data, not from the text of the source: active = GI50 up to about 1.1 µM and inactive = higher.

How the values were obtained:
Experiment in all cases: inhibition of tumour cell growth, NCI panel, 48 h
EKVX = system: EKVX
M14 = system: M14
OVCAR-3 = system: OVCAR-3
Malme-3M = system: Malme-3M
CCRF-CEM = system: CCRF-CEM
MOLT-4 = system: MOLT-4
UACC-62 = system: UACC-62
T47D = system: T47D
IGROV-1 = system: IGROV-1
SF-539 = system: SF-539
NCI-H522 = system: NCI-H522
HCT-15 = system: HCT-15
SF-295 = system: SF-295
SK-MEL-5 = system: SK-MEL-5
SK-MEL-2 = system: SK-MEL-2
SN12C = system: SN12C
NCI-H23 = system: NCI-H23
HL-60 = system: HL-60
SR = system: SR
HCC 2998 = system: HCC 2998

Structure (SMILES) | GI50 (EKVX) | GI50 (M14) | GI50 (OVCAR-3) | GI50 (Malme-3M) | GI50 (CCRF-CEM) | GI50 (MOLT-4) | GI50 (UACC-62) | GI50 (T47D) | GI50 (IGROV-1) | GI50 (SF-539) | GI50 (NCI-H522) | GI50 (HCT-15) | GI50 (SF-295) | GI50 (SK-MEL-5) | GI50 (SK-MEL-2) | GI50 (SN12C) | GI50 (NCI-H23) | GI50 (HL-60) | GI50 (SR) | GI50 (HCC 2998)
N#Cc1c(-c2ccccc2)cc(-c2ccccc2)n(C2OCC(O)C(O)C2O)c1=S (stereo not given) | 36.2 µM (inactive) | 27.2 µM (inactive) | 22.3 µM (inactive) | 30.7 µM (inactive) | 16.4 µM (inactive) | 16.7 µM (inactive) | 1.66 µM (inactive) | 4.42 µM (inactive) | 17.7 µM (inactive) | 22.2 µM (inactive) | 18.2 µM (inactive) | 25.4 µM | 18.5 µM (inactive) | 14.7 µM (inactive) | 25.4 µM (inactive) | > 10 µM (inactive) | 21.3 µM (inactive) |  |  | 
Cc1ccc(S(=O)(=O)NC(=O)Nc2ccc(C(=O)O)cc2)cc1 |  | > 100 µM (inactive) |  | > 100 µM (inactive) | > 100 µM (inactive) | > 100 µM (inactive) | > 100 µM (inactive) | > 100 µM (inactive) | > 100 µM (inactive) | > 100 µM (inactive) | > 100 µM (inactive) | > 100 µM | > 100 µM (inactive) | > 100 µM (inactive) | > 100 µM (inactive) | > 100 µM (inactive) | > 100 µM (inactive) | > 100 µM (inactive) |  | 
O=C1NCC2(CCNCC2)N1 | > 100 µM (inactive) | > 100 µM (inactive) |  | > 100 µM (inactive) | > 100 µM (inactive) | > 100 µM (inactive) | > 100 µM (inactive) | > 100 µM (inactive) | > 100 µM (inactive) | > 100 µM (inactive) |  | > 100 µM | > 100 µM (inactive) | > 100 µM (inactive) |  | > 100 µM (inactive) | > 100 µM (inactive) | > 100 µM (inactive) | > 100 µM (inactive) | > 100 µM (inactive)
COc1ccc(NC(C)=O)c(C(=O)CCNC(C)=O)c1 | > 100 µM (inactive) | > 100 µM (inactive) | > 100 µM (inactive) |  | > 100 µM (inactive) | > 100 µM (inactive) | > 100 µM (inactive) | > 100 µM (inactive) | > 100 µM (inactive) | > 100 µM (inactive) | > 100 µM (inactive) | > 100 µM | > 100 µM (inactive) | > 100 µM (inactive) | > 100 µM (inactive) | > 100 µM (inactive) | > 100 µM (inactive) | > 100 µM (inactive) | > 100 µM (inactive) | 
CCN(CC)CCCNc1nc(=O)[nH]c(C)c1C(=O)Nc1cccc2cc3ccccc3cc12 | > 100 µM (inactive) | > 100 µM (inactive) | > 100 µM (inactive) | > 100 µM (inactive) | > 100 µM (inactive) | > 100 µM (inactive) | > 100 µM (inactive) | > 100 µM (inactive) | > 100 µM (inactive) | > 100 µM (inactive) | 85.3 µM (inactive) | > 100 µM | > 100 µM (inactive) | > 100 µM (inactive) | > 100 µM (inactive) | > 100 µM (inactive) | > 100 µM (inactive) | > 100 µM (inactive) |  | > 100 µM (inactive)
Cc1ccc(F)cc1NC(=O)O/N=C(\Cl)C(C)C | 7.19 µM (inactive) | 5.22 µM (inactive) | 6.47 µM (inactive) | 2.7 µM (inactive) | 1.9 µM (inactive) | 1.6 µM (inactive) | 13.2 µM (inactive) | 4.73 µM (inactive) | 17.2 µM (inactive) | 7.21 µM (inactive) | 0.791 µM (active) | 1.82 µM | 28.5 µM (inactive) | 6.97 µM (inactive) | 19.1 µM (inactive) | 6.11 µM (inactive) | 17.9 µM (inactive) | 2.32 µM (inactive) |  | 16.2 µM (inactive)
Cc1c(/C=N\NC(=S)NCCNC(=S)N/N=C\c2c(C)n(C)n(-c3ccccc3)c2=O)c(=O)n(-c2ccccc2)n1C | > 100 µM (inactive) | > 100 µM (inactive) | > 100 µM (inactive) | > 100 µM (inactive) |  | > 100 µM (inactive) | > 100 µM (inactive) | > 100 µM (inactive) |  | > 100 µM (inactive) |  | > 100 µM | > 100 µM (inactive) | > 100 µM (inactive) | 22.4 µM (inactive) |  | > 100 µM (inactive) |  | > 100 µM (inactive) | > 100 µM (inactive)
COc1c(O)cc(O)c2c(=O)cc(-c3ccccc3)oc12 [WOGONIN] | 61.5 µM (inactive) | 69 µM (inactive) | 24.5 µM (inactive) | 85.3 µM (inactive) | 27 µM (inactive) | 36.1 µM (inactive) | 35.1 µM (inactive) |  | 29.4 µM (inactive) | 42.5 µM (inactive) | 40.6 µM (inactive) | 35.1 µM | 34.5 µM (inactive) | 34.2 µM (inactive) | 43.7 µM (inactive) | 90.6 µM (inactive) | 42.6 µM (inactive) | 21.5 µM (inactive) | 22.1 µM (inactive) | 35.2 µM (inactive)
